# Data published in patent US7759345B2, “Antitumoral derivatives of ET-743” (priority 2001, dated 2010).
# Like-named read-outs stand apart in the source and are kept apart here.
# Experiments:
# K-562 = assay: Inhibition of cells growth by colorimetric assay (SRB), K-562; format: cell-based; settings: K-562, SRB, 48 hours exposure
# Procedure, shortened: (§1)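 Using sulforhodamine B, cell growth and viability are quantified after a 48 h drug exposure of cells maintained in RPMI 1640/10% FBS at 37 °C, 5% CO2. Concentrations span 10 to 10^−8 μg/ml; optical density is read at 490 nm.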
# A-549 = assay: Inhibition of cells growth by colorimetric assay (SRB), A-549; format: cell-based
# Procedure, shortened: as §1
# SK-MEL-28 = assay: Inhibition of cells growth by colorimetric assay (SRB), SK-MEL-28; format: cell-based
# Procedure, shortened: as §1
# HT-29 = assay: Inhibition of cells growth by colorimetric assay (SRB), HT-29; format: cell-based
# Procedure, shortened: as §1
# LoVo = assay: Inhibition of cells growth by colorimetric assay (SRB), LoVo; format: cell-based; settings: LOVO, SRB, 48 hours exposure
# Procedure, shortened: as §1
# LoVo-Dox = assay: Inhibition of cells growth by colorimetric assay (SRB), LoVo-Dox; format: cell-based; settings: LOVO-DOX, SRB, 48 hours exposure
# Procedure, shortened: as §1
# DU-145 = assay: Inhibition of cells growth by colorimetric assay (SRB), DU-145; format: cell-based
# Procedure, shortened: as §1
# LNCaP = assay: Inhibition of cells growth by colorimetric assay (SRB), LNCaP; format: cell-based; settings: LNCAP, SRB, 48 hours exposure
# Procedure, shortened: as §1
# SK-BR-3 = assay: Inhibition of cells growth by colorimetric assay (SRB), SK-BR-3; format: cell-based; settings: SK-BR3, SRB, 48 hours exposure
# Procedure, shortened: as §1
# IGROV-1 = assay: Inhibition of cells growth by colorimetric assay (SRB), IGROV-1; format: cell-based; settings: IGROV, SRB, 48 hours exposure
# Procedure, shortened: as §1
# IGROV-ET = assay: Inhibition of cells growth by colorimetric assay (SRB), IGROV-ET; format: cell-based; settings: IGROV-ET, SRB, 48 hours exposure
# Procedure, shortened: as §1
# SK-OV-3 = assay: Inhibition of cells growth by colorimetric assay (SRB), SK-OV-3; format: cell-based; settings: SK-OV3, SRB, 48 hours exposure
# Procedure, shortened: as §1
# PANC-1 = assay: Inhibition of cells growth by colorimetric assay (SRB), PANC-1; format: cell-based; settings: PANC-1, SRB, 48 hours exposure
# Procedure, shortened: as §1
# HMEC1 = assay: Inhibition of cells growth by colorimetric assay (SRB), HMEC1; format: cell-based; settings: HMEC-1, SRB, 48 hours exposure
# Procedure, shortened: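 Human cancer and endothelial lines are seeded at 5×10^3 cells per well and, after 18 h, treated for 48 h with compound dissolved in DMSO/EtOH/PBS (0.5:0.5:99) at 10 to 10^−8 μg/ml. Cell mass is quantified by SRB staining (OD 490 nm), and growth inhibition, total growth inhibition and cell kill are calculated from triplicate wells.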
# Liver [1] = assay: In vitro toxicity, Liver
# Description: (§9) Toxicity was asssessed by the methods reported in Toxicology in Vitro, 15 (2001) 571-577, J. Luber Narod et al.: “Evaluation of the use of in vitro methodolodies as tools for screening new compounds for potential in vivo toxicity”.
# Heart [2] = assay: In vitro toxicity, Heart
# Description: as §9
# Myelo [3] = assay: In vitro toxicity, Myelo
# Description: as §9
# Kidney [4] = assay: In vitro toxicity, Kidney
# Description: as §9
# Skeletal [5] = assay: In vitro toxicity, Skeletal
# Description: as §9
# SW620 = assay: Inhibition of cells growth by colorimetric assay (SRB), SW620; format: cell-based
# Description: (§2) 2°.—Inhibition of Cells Growth by Colorimetric Assay.
# (§3) A colorimetric type of assay, using sulforhodamine B (SRB) reaction has been adapted for a quantitative measurement of cell growth and viability [following the technique described by Philip Skehan, et al. (1990), New colorimetric cytotoxicity assay for anticancer drug screening, J. Natl. Cancer Inst., 82:1107-1112]
# (§4) This form of the assay employs 96 well cell culture microplates of 9 mm diameter (Faircloth, 1988; Mosmann, 1983). Most of the cell lines are obtained from American Type Culture Collection (ATCC) derived from different human cancer types.
# (§5) Cells are maintained in RPMI 1640 10% FBS, supplemented with 0.1 g/l penicillin and 0.1 g/l streptomycin sulfate and then incubated at 37° C., 5% CO2 and 98% humidity. For the experiments, cells were harvested from subconfluent cultures using trypsin and resuspended in fresh medium before plating.
# (§6) Cells are seeded in 96 well microtiter plates, at 5×10^3 cells per well in aliquots of 195 μl medium, and they are allowed to attach to the plate surface by growing in drug free medium for 18 hours. Afterward, samples are added in aliquots of 5 μl in a ranging from 10 to 10^−8 μg/ml, dissolved in DMSO/EtOH/PBS (0.5:0.5:99). After 48 hours exposure, the antitumor effect are measured by the SRB methodology: cells are fixed by adding 50 μl of cold 50% (wt/vol) trichloroacetic acid (TCA) and incubating for 60 minutes at 4° C. Plates are washed with deionized water and dried. One hundred μl of SRB solution (0.4% wt/vol in 1% acetic acid) is added to each microtiter well and incubated for 10 minutes at room temperature. Unbound SRB is removed by washing with 1% acetic acid. Plates are air dried and bound stain is solubilized with Tris buffer. Optical densities are read on a automated spectrophotometric plate reader at a single wavelength of 490 nm.
# (§7) The values for mean+/−SD of data from triplicate wells are calculated. Some parameters for cellular responses can be calculated: GI=growth inhibition, TGI=total growth inhibition (cytostatic effect) and LC=cell killing (cytotoxic effect).
# (§8) Obtained results may predict the usefulness of a certain drug as a potential cancer treatment. For this technique, compounds which show GI50 values smaller than 10 μg/ml are selected to continue with further studies. GI50's data allow to predict that not only could a drug be cystostatic, but also it could have a potential in terms of tumor reduction.
# MCF-7 = assay: Inhibition of cells growth by colorimetric assay (SRB), MCF-7; format: cell-based
# Description: as §2, §3, §4, §5, §6, §7, §8
# MDA-MB-231 = assay: Inhibition of cells growth by colorimetric assay (SRB), MDA-MB-231; format: cell-based
# Description: as §2, §3, §4, §5, §6, §7, §8
# OVCAR-3 = assay: Inhibition of cells growth by colorimetric assay (SRB), OVCAR-3; format: cell-based
# Description: as §2, §3, §4, §5, §6
# The values for mean+/−SD of data from triplicate wells are calculated. Some parameters for cellular responses can be calculated: GI=growth inhibition, TGI=total growth inhibition (cytostatic effect) and LC=cell killing (cytotoxic effect). […]
# A-498 = assay: Inhibition of cells growth by colorimetric assay (SRB), A-498; format: cell-based
# Description: as §2, §3, §4, §5, §6, §7, §8
# Liver [6] = tested on: Liver
# Description: as §9
# Heart [7] = tested on: Heart
# Description: as §9
# Myelo [8] = tested on: Myelo
# Description: as §9
# Skeletal [9] = tested on: Skeletal
# Description: as §9
# Kidney [10] = tested on: Kidney
# Description: as §9
structure (smiles),measurement,setting,value
C=COC(=O)Oc1cc2c(cc1OC)[C@@]1(CS[C@@H]3c4c(OC(C)=O)c(C)c5c(c4[C@H](COC1=O)N1C3[C@H]3c4c(cc(C)c(OC)c4O)C[C@@H]([C@@H]1O)N3C)OCO5)NCC2 (stereo partly shown) [Compound 75],LC50 (50% lethal concentration),K-562,4.16 nM
same,TGI K-562,K-562,7.42E-10
same,GI50,K-562; read-out: GI50 K-562,0.364 nM
same,TGI A-549,"A-549; A-549, SRB, 48 hours exposure",8.23E-09
same,GI50,"A-549; A-549, SRB, 48 hours exposure, read-out: GI50 A-549",4.26 nM
same,LC50 (50% lethal concentration),"A-549; A-549, SRB, 48 hours exposure, read-out: LC50 A-549",49 nM
same,LC50 (concentration killing 50% of cells),"SK-MEL-28; MEL-28, SRB, 48 hours exposure",11.7 nM
same,TGI MEL-28,"SK-MEL-28; MEL-28, SRB, 48 hours exposure",4.82E-09
same,GI50,"SK-MEL-28; MEL-28, SRB, 48 hours exposure, read-out: GI50 MEL-28",2 nM
same,TGI HT-29,"HT-29; HT-29, SRB, 48 hours exposure",1.18E-08
same,GI50,"HT-29; HT-29, SRB, 48 hours exposure, read-out: GI50 HT-29",3.89 nM
same,CC50,"HT-29; HT-29, SRB, 48 hours exposure, read-out: LC50 HT-29",120 nM
same,LC50 (concentration killing 50% of cells),LoVo,12 nM
same,TGI LOVO,LoVo,4.82E-09
same,GI50,LoVo; read-out: GI50 LOVO,2.25 nM
same,TGI LOVO-DOX,LoVo-Dox,1.23E-07
same,GI50,LoVo-Dox; read-out: GI50 LOVO-DOX,42.6 nM
same,TGI DU-145,"DU-145; DU-145, SRB, 48 hours exposure",9.47E-10
same,GI50,"DU-145; DU-145, SRB, 48 hours exposure, read-out: GI50 DU-145",0.563 nM
same,CC50,"DU-145; DU-145, SRB, 48 hours exposure, read-out: LC50 DU-145",8330 nM
same,TGI LNCAP,LNCaP,8.31E-10
same,GI50,LNCaP; read-out: GI50 LNCAP,0.579 nM
same,CC50,LNCaP; read-out: LC50 LNCAP,1.19 nM
same,TGI SK-BR3,SK-BR-3,3.21E-09
same,GI50,SK-BR-3; read-out: GI50 SK-BR3,1.2 nM
same,CC50,SK-BR-3; read-out: LC50 SK-BR3,8.58 nM
same,TGI IGROV,IGROV-1,1.63E-09
same,GI50,IGROV-1; read-out: GI50 IGROV,0.52 nM
same,CC50,IGROV-1; read-out: LC50 IGROV,10 nM
same,TGI IGROV-ET,IGROV-ET,6.58E-09
same,GI50,IGROV-ET; read-out: GI50 IGROV-ET,3.38 nM
same,CC50,IGROV-ET; read-out: LC50 IGROV-ET,12 nM
same,TGI SK-OV3,SK-OV-3,1.04E-08
same,GI50,SK-OV-3; read-out: GI50 SK-OV3,2.19 nM
same,LC50 (concentration killing 50% of cells),PANC-1,35.9 nM
same,TGI PANC-1,PANC-1,8.45E-09
same,GI50,PANC-1; read-out: GI50 PANC-1,3.04 nM
same,TGI HMEC-1,HMEC1,5.77E-08
same,GI50,HMEC1; read-out: GI50 HMEC-1,6.97 nM
same,Toxicity Data Liver,Liver [1],4.11E-08
same,Toxicity Data Heart,Heart [2],8.17E-08
same,Toxicity Data Myelo,Myelo [3],5.85E-08
same,Toxicity Data Kidney,Kidney [4],3.86E-08
same,Toxicity Data Skeletal,Skeletal [5],4.06E-09
COc1cc2c(cc1OC(=O)/C=C/c1ccccc1)CCN[C@]21CS[C@@H]2c3c(OC(C)=O)c(C)c4c(c3[C@H](COC1=O)N1C2[C@@H]2N[C@@H](Cc3cc(C)c(OC)c(O)c32)[C@@H]1O)OCO4 (stereo partly shown) [Compound 212],GI50,"A-549; Homo sapiens, A549, 48 h, read-out: A-549 GI50",9.11 nM
same,LC50 (concentration for 50% cell killing),"A-549; Homo sapiens, A549, 48 h, read-out: A-549 LC50, SRB assay, 48 hours exposure",114 nM
same,A-549 TGI,"A-549; SRB assay, 48 hours exposure",2.28E-08
same,GI50,"SK-MEL-28; Homo sapiens, SK-MEL-28, 48 h, SRB assay, 48 hours exposure, read-out: MEL-28 GI50",1.14 nM
same,CC50,"SK-MEL-28; Homo sapiens, SK-MEL-28, 48 h, read-out: MEL-28 LC50, SRB assay, 48 hours exposure",9.11 nM
same,MEL-28 TGI,"SK-MEL-28; SRB assay, 48 hours exposure",3.42E-09
same,GI50,"HT-29; Homo sapiens, HT-29, 48 h, SRB assay, 48 hours exposure, read-out: HT-29 GI50",2.28 nM
same,LC50 (concentration for 50% cell killing),"HT-29; Homo sapiens, HT-29, 48 h, read-out: HT-29 LC50, SRB assay, 48 hours exposure",11.4 nM
same,HT-29 TGI,"HT-29; SRB assay, 48 hours exposure",4.56E-09
same,LC50,"SW620; Homo sapiens, SW-620, 48 h, read-out: SW-620 LC50",2280 nM
same,GI50,"SW620; Homo sapiens, SW-620, SRB assay, 48 hours exposure, read-out: SW-620 GI50",0.0228 nM
same,SW-620 TGI,"SW620; SRB assay, 48 hours exposure",1.14E-08
same,GI50,"DU-145; Homo sapiens, DU-145, 48 h, SRB assay, 48 hours exposure, read-out: DU-145 GI50",0.114 nM
same,CC50,"DU-145; Homo sapiens, DU-145, 48 h, read-out: DU-145 LC50, SRB assay, 48 hours exposure",11.4 nM
same,DU-145 TGI,"DU-145; SRB assay, 48 hours exposure",6.83E-10
same,CC50,"MCF-7; Homo sapiens, MCF7, 48 h, read-out: MCF LC50",342 nM
same,GI50,"MCF-7; Homo sapiens, MCF7, SRB assay, 48 hours exposure, read-out: MCF GI50",0.342 nM
same,MCF TGI,"MCF-7; SRB assay, 48 hours exposure",1.14E-08
same,CC50,"MDA-MB-231; Homo sapiens, MDA-MB-231, 48 h, read-out: MB-231 LC50",114 nM
same,GI50,"MDA-MB-231; Homo sapiens, MDA-MB-231, SRB assay, 48 hours exposure, read-out: MB-231 GI50",0.228 nM
same,MB-231 TGI,"MDA-MB-231; SRB assay, 48 hours exposure",5.69E-09
same,CC50,"OVCAR-3; Homo sapiens, OVCAR-3, 48 h, read-out: OVCAR LC50",2280 nM
same,GI50,"OVCAR-3; Homo sapiens, OVCAR-3, SRB assay, 48 hours exposure",0.342 nM
same,OVCAR TGI,"OVCAR-3; SRB assay, 48 hours exposure",3.42E-09
same,LC50,"A-498; Homo sapiens, A498, 48 h, read-out: A-498 LC50",1140 nM
same,GI50,"A-498; Homo sapiens, A498, SRB assay, 48 hours exposure, read-out: A-498 GI50",2.28 nM
same,A-498 TGI,"A-498; SRB assay, 48 hours exposure",1.14E-08
same,Toxicity Data Liver,Liver [6],8.68E-08
same,Toxicity Data Heart,Heart [7],3.20E-08
same,Toxicity Data Myelo,Myelo [8],8.58E-09
same,Toxicity Data Skeletal,Skeletal [9],2.21E-08
same,Toxicity Data Kidney,Kidney [10],3.34E-09
